≈ marks a conversion by molar mass, not a printed value. Calls of active or inactive are those of the source. The calls are words filed in the database; no cut-off is given here.
How the values were obtained:
Mus musculus [1] = assay: Antifibrotic activity against BLM-induced pulmonary fibrosis in C57BL/6 mouse model assessed as improvement in pulmonary alveolar structure damage at 100 mg/kg, po administered once daily starting from day 7 post BLM treatment and measured on day 14 by H and E staining based analysis; assay type: functional, organism-based; settings: time 14.0 day
Mus musculus [2] = assay: Antifibrotic activity against BLM-induced pulmonary fibrosis in C57BL/6 mouse model assessed as reduction in fibrosis region at 100 mg/kg, po administered once daily starting from day 7 post BLM treatment and measured on day 14 by hematoxylin-eosin and Masson trichrome staining based analysis relative to control; assay type: functional, organism-based; settings: time 14.0 day
[3] = target: Transforming growth factor beta-1 proprotein/Mothers against decapentaplegic homolog 3 (Mus musculus) (UniProt P04202+Q8BUN5); assay: Inhibition of TGF-beta1/Smad3 signalling in TGF-beta1 treated mouse NIH3T3 cells transfected with (CAGA)12-Lux reporter gene assessed as suppressive ratio at 10 uM incubated for 18 hrs by luciferase based analysis relative to control; assay type: cell-based; design: scale not given: the % may be the effect or the level left
Bacillus subtilis = assay: Antibacterial activity against Bacillus subtilis assessed as bacterial growth inhibition incubated for 24 hrs; assay type: functional
Staphylococcus aureus = assay: Antibacterial activity against Staphylococcus aureus assessed as bacterial growth inhibition incubated for 24 hrs; assay type: functional
Escherichia coli = assay: Antibacterial activity against Escherichia coli assessed as bacterial growth inhibition incubated for 24 hrs; assay type: functional

Sequence of Transforming growth factor beta-1 proprotein/Mothers against decapentaplegic homolog 3 (Mus musculus) (P04202 279-390 limits assumed): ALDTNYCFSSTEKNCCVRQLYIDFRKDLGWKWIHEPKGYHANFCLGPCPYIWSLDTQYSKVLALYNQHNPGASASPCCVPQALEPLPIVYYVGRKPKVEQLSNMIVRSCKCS
Sequence of Transforming growth factor beta-1 proprotein/Mothers against decapentaplegic homolog 3 (Mus musculus) (Q8BUN5 2-425 partner limits assumed): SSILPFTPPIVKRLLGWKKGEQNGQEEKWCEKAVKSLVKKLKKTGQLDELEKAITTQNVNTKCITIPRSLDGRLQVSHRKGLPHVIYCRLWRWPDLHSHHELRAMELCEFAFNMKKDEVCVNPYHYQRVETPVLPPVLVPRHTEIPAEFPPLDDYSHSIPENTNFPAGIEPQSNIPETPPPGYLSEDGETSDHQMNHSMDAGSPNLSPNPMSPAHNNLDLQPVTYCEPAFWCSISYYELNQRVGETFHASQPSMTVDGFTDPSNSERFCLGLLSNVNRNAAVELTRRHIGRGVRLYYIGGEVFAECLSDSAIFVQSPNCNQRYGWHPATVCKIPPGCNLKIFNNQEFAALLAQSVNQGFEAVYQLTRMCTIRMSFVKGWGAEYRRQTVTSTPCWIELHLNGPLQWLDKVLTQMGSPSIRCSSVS

Cc1ccc(=O)n(-c2ccccc2)c1
Activity (Mus musculus [1]): Active
Activity (Mus musculus [2]): Active

C=C[C@]1(C)C[C@@H](O)[C@]2(C)[C@H](C)CC[C@]3(C/C(=C\c4ccc(C(C)(C)C)cc4)C(=O)[C@H]32)[C@@H](C)[C@@H]1O
Activity [3]: 13.3%

C=C[C@]1(C)C[C@@H](O)[C@]2(C)[C@H](C)CC[C@]3(C/C(=C\c4ccccc4C)C(=O)[C@H]32)[C@@H](C)[C@@H]1O
Activity [3]: 38.8%

C=C[C@]1(C)C[C@@H](O)[C@]2(C)[C@H](C)CC[C@]3(C/C(=C\c4ccc(C(=O)NC5CCN(C)CC5)cc4)C(=O)[C@H]32)[C@@H](C)[C@@H]1O
Activity [3]: -9.93%

C=C[C@]1(C)C[C@@H](O)[C@]2(C)[C@H](C)CC[C@]3(C/C(=C\c4ccc(C(=O)N5CCOCC5)cc4)C(=O)[C@H]32)[C@@H](C)[C@@H]1O
Activity [3]: -19.9%

C=C[C@]1(C)C[C@@H](O)[C@]2(C)[C@H](C)CC[C@]3(C/C(=C\C(C)(C)C)C(=O)[C@H]32)[C@@H](C)[C@@H]1O
Activity [3]: 6.58%

C=C[C@]1(C)C[C@@H](O)[C@]2(C)[C@H](C)CC[C@]3(C/C(=C\c4c(C)cc(C)cc4C)C(=O)[C@H]32)[C@@H](C)[C@@H]1O
Activity [3]: 42.5%

C=C[C@]1(C)C[C@@H](O)[C@]2(C)[C@H](C)CC[C@]3(C/C(=C\c4ccc(C(=O)N(C)C)cc4)C(=O)[C@H]32)[C@@H](C)[C@@H]1O
Activity [3]: -20.3%

C=C[C@]1(C)C[C@@H](O)[C@]2(C)[C@H](C)CC[C@]3(C/C(=C\c4cccc(C(=O)O)c4)C(=O)[C@H]32)[C@@H](C)[C@@H]1O
Activity [3]: -0.41%

C=C[C@]1(C)C[C@@H](O)[C@]2(C)[C@H](C)CC[C@]3(C/C(=C\c4ccc5ccccc5c4)C(=O)[C@H]32)[C@@H](C)[C@@H]1O
Activity [3]: 26.5%

C=C[C@]1(C)C[C@@H](O)[C@]2(C)[C@H](C)CC[C@]3(C/C(=C\CCCC)C(=O)[C@H]32)[C@@H](C)[C@@H]1O
Activity [3]: 16.9%

C=C[C@]1(C)C[C@@H](O)[C@]2(C)[C@H](C)CC[C@]3(C/C(=C\CCC)C(=O)[C@H]32)[C@@H](C)[C@@H]1O
Activity [3]: 0.45%

C=C[C@]1(C)C[C@@H](O)[C@]2(C)[C@H](C)CC[C@]3(C/C(=C\c4ccco4)C(=O)[C@H]32)[C@@H](C)[C@@H]1O
Activity [3]: 31%

C=C[C@]1(C)C[C@@H](O)[C@]2(C)[C@H](C)CC[C@]3(C/C(=C\c4ccccc4)C(=O)[C@H]32)[C@@H](C)[C@@H]1O
Activity [3]: 15.2%

C=C[C@]1(C)C[C@@H](O)[C@]2(C)[C@H](C)CC[C@]3(C/C(=C\c4ccc(SC)cc4)C(=O)[C@H]32)[C@@H](C)[C@@H]1O
Activity [3]: 46%

C=C[C@]1(C)C[C@@H](O)[C@]2(C)[C@H](C)CC[C@]3(C/C(=C\c4ccc(C)cc4)C(=O)[C@H]32)[C@@H](C)[C@@H]1O
Activity [3]: 32.8%

C=C[C@]1(C)C[C@@H](O)[C@]2(C)[C@H](C)CC[C@]3(C/C(=C\C4CC4)C(=O)[C@H]32)[C@@H](C)[C@@H]1O
Activity [3]: -10.8%

C=C[C@]1(C)C[C@@H](O)[C@]2(C)[C@H](C)CC[C@]3(C/C(=C\c4ccc(OC)cc4)C(=O)[C@H]32)[C@@H](C)[C@@H]1O
Activity [3]: 21%

C=C[C@]1(C)C[C@@H](O)[C@]2(C)[C@H](C)CC[C@]3(C/C(=C\c4cccnc4)C(=O)[C@H]32)[C@@H](C)[C@@H]1O
Activity [3]: 0.29%

C=C[C@]1(C)C[C@@H](O)[C@]2(C)[C@H](C)CC[C@]3(C/C(=C\c4ccc(C(=O)N5CCN(C)CC5)cc4)C(=O)[C@H]32)[C@@H](C)[C@@H]1O
Activity [3]: 40.3%
MIC (Bacillus subtilis): > 1000 µg/mL
MIC (Staphylococcus aureus): > 1000 µg/mL
MIC (Escherichia coli): > 1000 µg/mL

C=C[C@]1(C)C[C@@H](O)[C@]2(C)[C@H](C)CC[C@]3(C/C(=C\c4ncccc4F)C(=O)[C@H]32)[C@@H](C)[C@@H]1O
Activity [3]: 13.5%

C=C[C@]1(C)C[C@@H](O)[C@]2(C)[C@H](C)CC[C@]3(C/C(=C\c4ccc(Cl)cc4)C(=O)[C@H]32)[C@@H](C)[C@@H]1O
Activity [3]: 48.9%

NC(=O)c1ccc(-c2nc(-c3ccccn3)c(-c3ccc4c(c3)OCO4)[nH]2)cc1
Activity [3]: 98.9%

C=C[C@]1(C)C[C@@H](O)[C@]2(C)[C@H](C)CC[C@]3(C/C(=C\c4ccc(C(=O)N5CCCCC5)cc4)C(=O)[C@H]32)[C@@H](C)[C@@H]1O
Activity [3]: -16.7%

C=C[C@]1(C)C[C@@H](O)[C@]2(C)[C@H](C)CC[C@]3(C/C(=C\c4ccc(C(=O)O)cc4)C(=O)[C@H]32)[C@@H](C)[C@@H]1O
Activity [3]: 41.4%
MIC (Bacillus subtilis): > 1000 µg/mL
MIC (Staphylococcus aureus): > 1000 µg/mL
MIC (Escherichia coli): > 1000 µg/mL

C=C[C@]1(C)C[C@@H](O)[C@]2(C)[C@H](C)CC[C@]3(C/C(=C\c4ccc(F)cc4)C(=O)[C@H]32)[C@@H](C)[C@@H]1O
Activity [3]: 35.3%

C=C[C@]1(C)C[C@@H](O)[C@]2(C)[C@H](C)CC[C@]3(C/C(=C\c4ccc(C(F)(F)F)cc4)C(=O)[C@H]32)[C@@H](C)[C@@H]1O
Activity [3]: 35.5%

C=C[C@]1(C)C[C@@H](OC(=O)CO)[C@]2(C)[C@H](C)CC[C@]3(CCC(=O)[C@H]32)[C@@H](C)[C@@H]1O [PLEUROMULIN]
MIC (Bacillus subtilis): 100 µg/mL (≈ 264 µM)
MIC (Staphylococcus aureus): 5 µg/mL (≈ 13.2 µM)
MIC (Escherichia coli): 10 µg/mL (≈ 26.4 µM)

C=C[C@]1(C)C[C@@H](O)[C@]2(C)[C@H](C)CC[C@]3(C/C(=C\CC(C)(C)C)C(=O)[C@H]32)[C@@H](C)[C@@H]1O
Activity [3]: 18.5%

C=C[C@]1(C)C[C@@H](O)[C@]2(C)[C@H](C)CC[C@]3(C/C(=C\c4cccc(C)c4)C(=O)[C@H]32)[C@@H](C)[C@@H]1O
Activity [3]: 0.99%

C=C[C@]1(C)C[C@@H](O)[C@]2(C)[C@H](C)CC[C@]3(C/C(=C\c4ccc(C(=O)Nc5ccccc5)cc4)C(=O)[C@H]32)[C@@H](C)[C@@H]1O
Activity [3]: -27.7%

C=C[C@]1(C)C[C@@H](O)[C@]2(C)[C@H](C)CC[C@]3(C/C(=C\C4CCCC4)C(=O)[C@H]32)[C@@H](C)[C@@H]1O
Activity [3]: 30.6%

C=C[C@]1(C)C[C@@H](O)[C@]2(C)[C@H](C)CC[C@]3(C/C(=C\c4cccc(C(=O)N5CCN(C)CC5)c4)C(=O)[C@H]32)[C@@H](C)[C@@H]1O
Activity [3]: 7.27%

C=C[C@]1(C)C[C@@H](O)[C@]2(C)[C@H](C)CC[C@]3(C/C(=C\C4CCCCC4)C(=O)[C@H]32)[C@@H](C)[C@@H]1O
Activity [3]: 32.4%

C=C[C@]1(C)C[C@@H](O)[C@]2(C)[C@H](C)CC[C@]3(C/C(=C\C=C\c4ccccc4)C(=O)[C@H]32)[C@@H](C)[C@@H]1O
Activity [3]: 34%

C=C[C@]1(C)C[C@@H](O)[C@]2(C)[C@H](C)CC[C@]3(C/C(=C\c4cccc(C(=O)NC5CCCCC5)c4)C(=O)[C@H]32)[C@@H](C)[C@@H]1O
Activity [3]: -3.36%

C=C[C@]1(C)C[C@@H](O)[C@]2(C)[C@H](C)CC[C@]3(C/C(=C\c4ccccc4N4CCOCC4)C(=O)[C@H]32)[C@@H](C)[C@@H]1O
Activity [3]: 20.6%
